Data on twelve compounds can be found in patent US6162918A, “Xanthene and acridine derivatives” (priority 1996, dated 2000).

SMILES strings stand for the structures. Where two headings read alike, the source gives them in different places.

Test [1] addresses HSV-2 thymidine kinase (TK) (Human herpesvirus 2, UniProt P04407). The experiment in a line: Inhibition of HSV-2 thymidine kinase (3H-thymidine phosphorylation, DEAE-cellulose disc assay). It is filed as biochemical. How it is done: (§1) In this test procedure, the assay mixture contains […] Tris HCl, pH 8, 5 mmol magnesium chloride, 5 mmol ATP, […] 3H-thymidine (50 Ci/mmol), suitably diluted enzyme preparation and various concentrations of test compounds in a total volume of […]. Assays are incubated at 37° C. for 30 minutes and the reaction is terminated by immersion in a boiling water bath for 2 minutes. […] aliquots from each assay are then dried on to DEAE-cellulose paper discs and the unphosphorylated 3H-thymidine is removed by washing in 4 mmol ammonium formate. The radioactivity remaining bound to the discs is then measured by scintillation spectrophotometry. The degree of inhibition at each concentration of test compound is expressed as a percentage of the control reaction (100%) after subtracting a measured blank value which represents the amount of radioactivity bound to the disc from a reaction containing heat-inactivated enzymes. The IC50 value, namely the concentration of test compound which inhibits enzyme activity by 50%, is then calculated.

In test [2] the target is HSV-1 thymidine kinase (TK) (Human herpesvirus 1, UniProt P0DTH5). As to the kind of experiment: Inhibition of HSV-1 thymidine kinase (3H-thymidine phosphorylation, DEAE-cellulose disc assay). It is filed as biochemical. How it is done: as §1
HSV-1 thymidine kinase (TK), sequence (P0DTH5 whole entry): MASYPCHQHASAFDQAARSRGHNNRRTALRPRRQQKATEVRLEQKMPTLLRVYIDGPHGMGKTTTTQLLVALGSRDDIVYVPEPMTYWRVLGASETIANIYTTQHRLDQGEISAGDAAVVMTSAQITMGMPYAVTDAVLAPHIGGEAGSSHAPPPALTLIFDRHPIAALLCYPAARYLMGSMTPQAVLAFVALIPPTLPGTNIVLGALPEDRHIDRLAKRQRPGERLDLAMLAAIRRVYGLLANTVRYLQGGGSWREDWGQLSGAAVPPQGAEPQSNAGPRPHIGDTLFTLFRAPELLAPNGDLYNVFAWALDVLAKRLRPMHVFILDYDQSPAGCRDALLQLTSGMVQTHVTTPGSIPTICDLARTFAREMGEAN
The mark [3] stands for this setting: 37° C., 30 minutes, pH 8, 3H-thymidine substrate, read-out: Activity against HSV-2 TK IC50 (nmol).
[4] abbreviates: 37° C., 30 minutes, pH 8, 3H-thymidine substrate, read-out: Activity against HSV-1 TK IC50 (nmol).

HSV-2 thymidine kinase (TK), sequence (P04407 whole entry): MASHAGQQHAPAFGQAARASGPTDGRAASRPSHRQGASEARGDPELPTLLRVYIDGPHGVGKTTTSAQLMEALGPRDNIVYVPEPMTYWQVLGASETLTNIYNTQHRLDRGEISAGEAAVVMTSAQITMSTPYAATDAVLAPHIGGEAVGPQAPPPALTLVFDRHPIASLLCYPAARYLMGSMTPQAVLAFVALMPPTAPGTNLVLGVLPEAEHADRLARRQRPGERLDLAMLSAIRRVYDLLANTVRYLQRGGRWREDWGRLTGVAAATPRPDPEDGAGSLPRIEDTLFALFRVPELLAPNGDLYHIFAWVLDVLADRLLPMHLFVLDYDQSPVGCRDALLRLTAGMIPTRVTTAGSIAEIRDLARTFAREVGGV

The IC50 is the point on the concentration scale where inhibition reaches its midpoint. For the compound `CCc1cn([C@H]2C[C@H](O)[C@@H](CNC(=O)C3c4ccccc4Oc4ccccc43)O2)c(=O)[nH]c1=O` [2',5'-dideoxy-5-ethyl-5'-[(9-xanthenyl)carboxamido]uridine, reference compound], the IC50 in test [1] amounted to 0.34 nM; in test [2] it was 4.2 nM.
Regarding `CC1(C)CC(=O)C2=C(C1)NC1=C(C(=O)CC(C)(C)C1)C2c1ccc(Cl)c(Oc2ccccc2)c1` [A, 9-(4-chloro-3-phenoxyphenyl)-3,4,6,7,9,10-hexahydro-3,3,6,6-tetramethyl-1,8(2H,5H)-acridinedione], the figures for the half-maximal inhibitory concentration (IC50) in test [1] (setting [3]) and in test [2] (setting [4]) were 0.095 nM and 0.3 nM, respectively.
In the same order, the values of `CC1(C)CC(=O)C2=C(C1)NC1=C(C(=O)CC(C)(C)C1)C2c1ccc(Cl)c(Sc2ccccc2)c1` [B, 9-(4-chloro-3-phenylthiophenyl)-3,4,6,7,9,10-hexahydro-3,3,6,6-tetramethyl-1,8(2H,5H)-acridinedione] are 0.12 nM and 0.56 nM.
Taken in the same sequence, the figures for `CC1(C)CC(=O)C2=C(C1)NC1=C(C(=O)CC(C)(C)C1)C2c1ccc(Cl)c(-c2ccccc2)c1` [C, 9-[6-chloro-3-(1,1'-biphenylyl)]-3,4,6,7,9,10-hexahydro-3,3,6,6-tetramethyl-1,8(2H,5H)-acridinedione] were 0.27 nM and 0.52 nM.
As to `CC1(C)CC(=O)C2=C(C1)NC1=C(C(=O)CC(C)(C)C1)C2c1ccc(Cl)c(Oc2ccncc2)c1` [Compound I, 9-[4-chloro-3-(4-pyridyloxy)-phenyl]-3,4,6,7,9,10-hexahydro-3,3,6,6-tetramethyl-1,8(2H,5H)-acridinedione], the IC50 in test [1] (setting [3]) came to 0.19 nM; in test [2] (setting [4]), 0.8 nM.
In the same order, the values of `CC1(C)CC(=O)C2=C(C1)NC1=C(C(=O)CC(C)(C)C1)C2c1ccc(Cl)c(Cl)c1` [D, 9-(3,4-dichlorophenyl)-3,4,6,7,9,10-hexahydro-3,3,6,6-tetramethyl-1,8(2H,5H)-acridinedione] are 0.64 nM and 9.4 nM.
With `CC1(C)CC(=O)C2=C(C1)NC1=C(C(=O)CC(C)(C)C1)C2c1ccc(Cl)c(F)c1` [E, 9-(4-chloro-3-fluorophenyl)-3,4,6,7,9,10-hexahydro-3,3,6,6-tetramethyl-1,8(2H,5H)-acridinedione], the concentration for half-maximal inhibition (IC50) in test [1] (setting [3]) was determined as 0.44 nM; in test [2] (setting [4]), 5.9 nM.
`CC1(C)CC(=O)C2=C(C1)NC1=C(C(=O)CC(C)(C)C1)C2c1ccc(Cl)c(-n2cccc2)c1` [F, 9-[4-chloro-3-(1H-pyrrol-1-yl)phenyl]-3,4,6,7,9,10-hexahydro-3,3,6,6-tetramethyl-1,8(2H,5H)-acridinedione]: the IC50 in test [1] (setting [3]) turned out to be 0.18 nM; in test [2] (setting [4]), 0.44 nM.
In the same order, the values of `CC1(C)CC(=O)C2=C(C1)NC1=C(C(=O)CC(C)(C)C1)C2c1cccc(Oc2ccccc2)c1` [G, 3,4,6,7,9,10-hexahydro-3,3,6,6-tetramethyl-9-(3-phenoxyphenyl)-1,8(2H,5H)-acridinedione] are 1.1 nM and 5.8 nM.
For `CC1(C)CC(=O)C2=C(C1)NC1=C(C(=O)CC(C)(C)C1)C2c1ccc(Br)cc1` [H, 9(4-Bromophenyl)-3,4,6,7,9,10-hexahydro-3,3,6,6-tetramethyl-1,8(2H,5H)-acidinedione], the IC50 in test [1] (setting [3]) was found to be 1.5 nM; in test [2] (setting [4]), 12 nM.
As for `CC1(C)CC(=O)C2=C(C1)NC1=C(C(=O)CC(C)(C)C1)C2c1ccc([N+](=O)[O-])c(OCc2ccccc2)c1` [J, 9-(3-benzyloxy-4-nitrophenyl)-3,4,6,7,9,10-hexahydro-3,3,6,6-tetramethyl-1,8(2H,5H)-acridinedione], the IC50 was found to be 0.38 nM in test [1] (setting [3]) and 0.9 nM in test [2] (setting [4]).
In the same order, the values of `CC1(C)CC(=O)C2=C(C1)NC1=C(C(=O)CC(C)(C)C1)C2c1ccc(Cl)c(Sc2ccncc2)c1` [K] are 0.54 nM and 2.6 nM.
